Test results reported in patent US11685720B2, “Salt forms of URAT-1 inhibitors” (INVENTISBIO CO., LTD., priority 2018, dated 2023).
Converted amounts (≈) assume the structure as drawn.

Columns and labels:
Type in all cases: physicochemical
[1] = Solubility test, suspension filtered and filtrate analyzed by HPLC; conditions: thermodynamic from solid, 25° C.
Description: The suspension was centrifuged under 200 rpm at 25° C., and 0.3 mL to 0.5 mL of […]. At each time point, the suspension was filtered to remove solid, and the filtrate was analyzed by HPLC.
(§1) The solubilities of the three salts and the Compound 1 were studied in pH 6.8 buffer and water, and the data was summarized in Table 5.

[2] = Dynamic moisture sorption (DVS); conditions: at 80% RH
Description: DYNAMIC MOISTURE SORPTION: Dynamic moisture adsorption and desorption were studied using IGA sorp (Hiden Isochema Ltd. Warrington, UK). About 3-5 mg of prepared sample was placed in a sample basket and hung in the measuring chamber of an IGA Sorp. For an isotherm test, the chamber temperature is maintained by a water bath at constant 25±1° C. The sample was tested at a targeted RH of 10 to 90% full cycle in step mode. The analysis was performed in 10% RH increments. Time duration at each RH was set as min.30 minutes to max. 120 min, so that the sample could reach equilibrium with the chamber environment. Data was collected in 3 minutes increment.

[3] = Solubility test by visual observation; conditions: thermodynamic from solid; for solubility: both water and pH 6.8 buffer; for solubility at 0.5 h: visual observation
Description: The solubilities of 1-Na and 1-K salts were very high, so the solubility was determined by visual observation. Weighed about 5 mg of sample solid (1-Na or 1-K salt) into a 2 mL of vial, and then added 5 uL of pH 6.8 buffer solution or water each time until the solids was dissolved.
as §1

SMILES	solubility at 0.5 h ([1]; aqueous buffer, pH 6.8 buffer)	solubility at 2 h ([1]; aqueous buffer, pH 6.8 buffer)	solubility at 0.5 h ([1]; water)	solubility at 2 h ([1]; water)	Water adsorbed (hygroscopicity) [2]	solubility ([3]; aqueous buffer)	solubility at 0.5 h ([3]; aqueous buffer, pH 6.8 buffer)	solubility at 0.5 h ([3]; water)
N#Cc1ccc(-c2cnccc2SCC2(CC(=O)O)CC2)cc1 [Compound 1, 2-(1-(((3-(4-cyanophenyl)pyridin-4-yl)thio)methyl)cyclopropyl)acetic acid]	83 µg/mL (≈ 256 µM)	84 µg/mL (≈ 259 µM)	19 µg/mL (≈ 58.6 µM)	34 µg/mL (≈ 105 µM)				
N#Cc1ccc(-c2cnccc2SCC2(CC(=O)[O-])CC2)cc1.[K+] [1-K salt, potassium 2-(1-(((3-(4-cyanophenyl)pyridin-4-yl)thio)methyl)cyclopropyl)acetate]					50.63%	> 400000 µg/mL	> 400000 µg/mL	> 400000 µg/mL
N#Cc1ccc(-c2cnccc2SCC2(CC(=O)[O-])CC2)cc1.[Na+] [1-Na salt, sodium 2-(1-(((3-(4-cyanophenyl)pyridin-4-yl)thio)methyl)cyclopropyl)acetate]					8.28%	> 400000 µg/mL	> 400000 µg/mL	> 400000 µg/mL
